Results published in patent US11236086B2, “Substituted pyrrolopyridines as inhibitors of activin receptor-like kinase” (BLUEPRINT MEDICINES CORPORATION, priority 2017, dated 2022).

Tests used:
human ALK2 R206H = target: T1, human ALK2 R206H (Homo sapiens, UniProt Q04771, R206H); experiment: Cell-based ALK2-R206H cell activity assay (Smad1-Ser463/Ser465 phosphorylation by AlphaLISA in HEK293-ALK2-R206H cells); conditions: phospho-Smad1 AlphaLISA, read-out: Cell Line (Cell Assay, IC50 class)
T1 construct: expressed in transfected cells; host or cells: HEK293 (ATCC CRL1573), lentivirus transduction, blasticidin selection
T1 sequence (Q04771 21-509 R206H): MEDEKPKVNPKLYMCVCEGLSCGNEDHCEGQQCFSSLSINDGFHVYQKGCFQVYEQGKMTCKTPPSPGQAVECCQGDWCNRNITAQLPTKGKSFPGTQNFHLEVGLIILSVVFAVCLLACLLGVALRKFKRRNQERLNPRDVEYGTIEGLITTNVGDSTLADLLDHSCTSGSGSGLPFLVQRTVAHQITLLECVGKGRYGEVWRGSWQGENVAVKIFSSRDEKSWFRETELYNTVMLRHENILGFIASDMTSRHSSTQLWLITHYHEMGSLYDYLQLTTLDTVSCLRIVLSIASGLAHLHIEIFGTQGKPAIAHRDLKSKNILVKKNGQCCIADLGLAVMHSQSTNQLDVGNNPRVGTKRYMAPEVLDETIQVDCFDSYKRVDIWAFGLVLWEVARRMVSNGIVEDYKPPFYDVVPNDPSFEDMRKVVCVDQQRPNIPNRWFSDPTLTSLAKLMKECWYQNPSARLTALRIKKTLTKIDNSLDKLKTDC
How it was run: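 IC50 comes from a 10-point curve, scaled between DMSO and 1 μM LDN193189 controls, of lysate phospho-Smad1 (Ser463/465) measured by AlphaLISA. Compounds (top 10 μM or 1 μM, 3-fold steps, duplicates) were given 2-3 h to serum-starved HEK293 cells that stably express FLAG-tagged human ALK2 R206H.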

[1] = target: T2, ALK2R206H (mutant ALK2, N-terminally tagged with GST) (Homo sapiens, UniProt Q04771, R206H); experiment: ALK binding assay (LANTHASCREEN TR-FRET competitive binding, displacement of Kinase Tracer 178); conditions: read-out: Binding Assay (IC50 class)
T2 construct: purchased Carna Bioscience or ThermoFisher 09-148 or PV6232
T2 sequence (Q04771 21-509 R206H): T1 sequence (Q04771 21-509 R206H)
How it was run: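 Competitive displacement of Kinase Tracer 178 (50 nM) from N-terminally GST-tagged mutant ALK2 R206H (2-5 nM) by compound, detected by TR-FRET with Eu-anti-GST antibody (4-10 nM). 30 min room temperature incubation, 1% DMSO final; normalized signal fitted to 4-parameter log dose response for IC50.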

Compound | IC50 (human ALK2 R206H) [µM] | IC50 [1] [µM]
Cn1cc(-c2[nH]c3nccc(N4CCN(C(=O)O[C@H]5C[C@H](F)C5)CC4)c3c2F)cn1 [Compound 267] | ≤ 0.1 | ≤ 0.01
Cn1cnc(-c2[nH]c3nccc(N4CCN(C(=O)OC5CC5)CC4)c3c2C#N)c1 [Compound 130] | ≤ 0.1 | ≤ 0.01
CCOC(=O)N1CCN(c2ccnc3[nH]c(-c4cnn(C(C)C)c4)cc23)CC1 [Compound 96] | ≤ 0.1 | ≤ 0.01
CCOC(=O)N1CCN(c2ccnc3[nH]c(-c4ccc(C#N)cc4)cc23)CC1 [Compound 53] | ≤ 0.1 | ≤ 0.01
Cn1cnc(-c2[nH]c3nccc(N4CCN(C(=O)O[C@H]5C[C@@H](F)C5)CC4)c3c2C#N)c1 [Compound 296] | ≤ 0.1 | ≤ 0.01
O=C(OC1COC1)N1CCN(c2ccnc3[nH]c(-c4csc(N5CCC(O)CC5)n4)cc23)CC1 [Compound 450] | 0.1 to 0.5 | ≤ 0.01
O=C(C1CC1)N1CCN(c2ccnc3[nH]c(-c4ccc(C5(O)CCCOC5)cc4)cc23)CC1 (stereo not shown) [Compound 385] | ≤ 0.1 | ≤ 0.01
Cc1ncc(-c2cc3c(N4CCN(C(=O)OC5COC5)CC4)ccnc3[nH]2)o1 [Compound 103] | 0.1 to 0.5 | ≤ 0.01
O=C(C1CC1)N1CCN(c2ccnc3[nH]c(-c4ccc(C5CCN(C6COC6)CC5)cc4)cc23)CC1 [Compound 451] | ≤ 0.1 | ≤ 0.01
Cc1nc(-c2[nH]c3nccc(N4CCN(C(=O)OC5CCC5)CC4)c3c2C#N)cn1C [Compound 284] | ≤ 0.1 | ≤ 0.01
Cn1cc(-c2cc3c(N4CCN(C(=O)O[C@@H]5CCC5(F)F)CC4)ccnc3[nH]2)cn1 [Compound 263] | ≤ 0.1 | ≤ 0.01
Cn1cc(-c2[nH]c3nccc(N4CCN(C(=O)OC5COC5)CC4)c3c2C#N)cn1 [Compound 207] | ≤ 0.1 | ≤ 0.01
CCN1CCN(c2ccc(-c3cc4c(N5CCN(C(=O)C6CC6)CC5)ccnc4[nH]3)c(F)c2)CC1 [Compound 444] | ≤ 0.1 | ≤ 0.01
O=C(OC1COC1)N1CCN(c2ccnc3[nH]c(-c4nc5c(s4)COCC5)cc23)CC1 [Compound 371] | ≤ 0.1 | ≤ 0.01
Cn1cnc(-c2cc3c(N4CCN(C(=O)OCC(F)F)CC4)ccnc3[nH]2)c1 [Compound 124] | ≤ 0.1 | ≤ 0.01
Cn1cc(-c2[nH]c3nccc(N4CCN(C(=O)OC5COC5)CC4)c3c2Br)cn1 [Compound 426] | 0.1 to 0.5 | ≤ 0.01
CCN1CC[C@H](c2ccc(-c3cc4c(N5CCN(C(=O)C6CC6)CC5)ccnc4[nH]3)cc2)C(F)(F)C1 [Compound 459] | ≤ 0.1 | ≤ 0.01
Cn1cnc(-c2cc3c(N4CCN(C(=O)O[C@H]5CCC5(F)F)CC4)ccnc3[nH]2)c1 [Compound 265] | ≤ 0.1 | ≤ 0.01
Cn1cc(-c2cc3c(N4CCN(C(=O)O[C@H]5C[C@H](F)C5)CC4)ccnc3[nH]2)cn1 [Compound 162] | ≤ 0.1 | ≤ 0.01
CC(C)n1cc(-c2cc3c(N4CCN(C(=O)[C@H]5CC[C@H](C#N)CC5)CC4)ccnc3[nH]2)cn1 [Compound 381] | ≤ 0.1 | ≤ 0.01
CC#Cc1c(-c2cnn(C)c2)[nH]c2nccc(N3CCN(C(=O)OCC)CC3)c12 [Compound 132] | ≤ 0.1 | ≤ 0.01
CCOC(=O)N1CCN(c2ccnc3[nH]c(-c4cnn(C)c4)c(F)c23)CC1 [Compound 50] | ≤ 0.1 | ≤ 0.01
Cn1cc(-c2[nH]c3nccc(N4CCN(C(=O)[C@H]5C[C@H](C#N)C5)CC4)c3c2Cl)cn1 [Compound 299] | ≤ 0.1 | ≤ 0.01
Cn1cc(-c2[nH]c3nccc(N4CCN(C(=O)OC5CS(=O)(=O)C5)CC4)c3c2C#N)cn1 [Compound 414] | ≤ 0.1 | ≤ 0.01
CCCC(C)C(=O)N1CCN(c2ccnc3[nH]c(-c4cnn(C)c4)cc23)CC1 (stereo not shown) [Compound 82] | > 0.5 | ≤ 0.01
CC(C)Oc1ccc(-c2cc3c(N4CCN(C(=O)C5CC5)CC4)ccnc3[nH]2)cc1 [Compound 194] | ≤ 0.1 | ≤ 0.01
Cn1cc(-c2[nH]c3nccc(N4CCN(C(=O)C5CC5)CC4)c3c2Br)cn1 [Compound 320] | 0.1 to 0.5 | ≤ 0.01

Compound | IC50 (human ALK2 R206H) [µM] | IC50 [1] [µM]
Cc1nc(-c2cc3c(N4CCN(C(=O)OC5CC(F)(F)C5)CC4)ccnc3[nH]2)cn1C [Compound 325] | ≤ 0.1 | ≤ 0.01
Cn1cc(-c2cc3c(N4CCN(C(=O)O[C@H]5C[C@@H](F)C5)CC4)ccnc3[nH]2)cn1 [Compound 161] | ≤ 0.1 | ≤ 0.01
Cn1cnc(-c2[nH]c3nccc(N4CCN(C(=O)OCC(F)F)CC4)c3c2C#N)c1 [Compound 257] | ≤ 0.1 | ≤ 0.01
Cn1ccc(-c2cc3c(N4CCN(C(=O)OC5COC5)CC4)ccnc3[nH]2)n1 [Compound 91] | 0.1 to 0.5 | ≤ 0.01
CC(C)N1CCC(c2ccc(-c3cc4c(N5CCN(C(=O)OC6COC6)CC5)ccnc4[nH]3)nc2)CC1 [Compound 469] | ≤ 0.1 | ≤ 0.01
Cc1nc(-c2[nH]c3nccc(N4CCN(C(=O)O[C@H]5C[C@H](F)C5)CC4)c3c2C#N)cs1 [Compound 365] | ≤ 0.1 | ≤ 0.01
O=C(COc1ccc(-c2cc3c(N4CCN(C(=O)C5CC5)CC4)ccnc3[nH]2)cc1)N1CCC1 [Compound 420] | 0.1 to 0.5 | ≤ 0.01
Cc1nc(-c2cc3c(N4CCN(C(=O)OC5CC5)CC4)ccnc3[nH]2)cn1C [Compound 75] | ≤ 0.1 | ≤ 0.01
O=C(OC1COC1)N1CCN(c2ccnc3[nH]c(-c4ccccn4)cc23)CC1 [Compound 66] | 0.1 to 0.5 | ≤ 0.01
Cc1nc(-c2cc3c(N4CCN(C(=O)O[C@H]5C[C@H](F)C5)CC4)ccnc3[nH]2)sc1C [Compound 323] | ≤ 0.1 | ≤ 0.01
CCOC(=O)N1CCN(c2ccnc3[nH]c(-c4ccc(C5(OC)CCN(C(C)CF)CC5)cn4)cc23)CC1 (stereo not shown) [Compound 476] | ≤ 0.1 | ≤ 0.01
CN1CCN(c2ccc(-c3cc4c(N5CCN(C(=O)C6CC6)CC5)ccnc4[nH]3)cc2)CC1 [Compound 380] | ≤ 0.1 | ≤ 0.01
CCOC(=O)N1CCN(c2ccnc3[nH]c(-c4ccc([C@@]5(O)CCOC5)cc4)cc23)CC1 [Compound 355] | ≤ 0.1 | ≤ 0.01
Cc1nc(-c2cc3c(N4CCN(C(=O)[C@H]5C[C@H](C#N)C5)CC4)ccnc3[nH]2)cs1 [Compound 205, (1r,3r)-3-(4-(2-(2-methylthiazol-4-yl)-1H-pyrrolo[2,3-b]pyridin-4-yl)piperazine-1-carbonyl)cyclobutanecarbonitrile] | ≤ 0.1 | ≤ 0.01
CCOC(=O)N1CCN(c2ccnc3[nH]c(-c4cnn(C)c4)c(Br)c23)CC1 [Compound 341] | ≤ 0.1 | ≤ 0.01
Cc1nc(-c2[nH]c3nccc(N4CCN(C(=O)OCC(F)F)CC4)c3c2Cl)cn1C [Compound 363] | ≤ 0.1 | ≤ 0.01
CC(C)(C)c1ccc(-c2cc3c(N4CCN(C(=O)C5CC5)CC4)ccnc3[nH]2)cc1 [Compound 185] | 0.1 to 0.5 | ≤ 0.01
CC(=O)N1CCc2nc(-c3cc4c(N5CCN(C(=O)OC6COC6)CC5)ccnc4[nH]3)sc2C1 [Compound 447] | ≤ 0.1 | ≤ 0.01
Cc1c(-c2cc3c(N4CCN(C(=O)[C@H]5CC[C@H](C#N)CC5)CC4)ccnc3[nH]2)cnn1C(C)C [Compound 423] | ≤ 0.1 | ≤ 0.01
C[C@H](F)COC(=O)N1CCN(c2ccnc3[nH]c(-c4cnn(C)c4)cc23)CC1 [Compound 116] | ≤ 0.1 | ≤ 0.01
Cc1nc(-c2[nH]c3nccc(N4CCN(C(=O)O[C@H]5C[C@H](F)C5)CC4)c3c2C#N)cn1C [Compound 357] | ≤ 0.1 | ≤ 0.01
O=C(C1CC1)N1CCN(c2ccnc3[nH]c(-c4ccc(C5(O)COC5)cc4)cc23)CC1 [Compound 283] | 0.1 to 0.5 | ≤ 0.01
CCN1CCN(c2ccc(-c3cc4c(N5CCN(C(=O)C6CC6)CC5)ccnc4[nH]3)cc2)CC1 [Compound 418] | ≤ 0.1 | ≤ 0.01
CCOC(=O)N1CCN(c2ccnc3[nH]c(-c4cnn(C(F)F)c4)cc23)CC1 [Compound 125] | ≤ 0.1 | ≤ 0.01
CCOC(=O)N1CCN(c2ccnc3[nH]c(-c4cnn(C)c4)c(C#N)c23)CC1 [Compound 68] | ≤ 0.1 | ≤ 0.01
CCOC(=O)N1CCN(c2ccnc3[nH]c(-c4cc(C)n(C)n4)cc23)CC1 [Compound 39] | 0.1 to 0.5 | ≤ 0.01
